Source: US12201640B2, “19-nor C3,3-disubstituted C21-n-pyrazolyl steroids and methods of use thereof” (Sage Therapeutics, Inc., priority 2013, dated 2025)

Legend:
GABAA-R = biological target: T1, GABAA-R (Homo sapiens, UniProt P14867+P47870); assay: Electrophysiological evaluation at GABAA-R (Table 2); format: cell-based; settings: GABAA-R electrophysiology; for EC50: read-out: EC50
T1 sequence (P14867 1-456): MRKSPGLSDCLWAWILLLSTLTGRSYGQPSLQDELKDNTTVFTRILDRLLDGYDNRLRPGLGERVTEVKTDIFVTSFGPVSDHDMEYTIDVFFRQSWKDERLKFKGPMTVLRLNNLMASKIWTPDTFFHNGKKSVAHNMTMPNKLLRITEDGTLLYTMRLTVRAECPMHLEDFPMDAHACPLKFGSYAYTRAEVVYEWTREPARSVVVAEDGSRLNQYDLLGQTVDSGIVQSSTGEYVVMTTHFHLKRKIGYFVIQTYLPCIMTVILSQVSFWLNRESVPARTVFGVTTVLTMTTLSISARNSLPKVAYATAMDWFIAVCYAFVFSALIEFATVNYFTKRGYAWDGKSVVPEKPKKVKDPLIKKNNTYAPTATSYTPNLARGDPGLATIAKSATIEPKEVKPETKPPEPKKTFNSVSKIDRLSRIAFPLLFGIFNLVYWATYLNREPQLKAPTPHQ
T1 sequence (P47870 1-512): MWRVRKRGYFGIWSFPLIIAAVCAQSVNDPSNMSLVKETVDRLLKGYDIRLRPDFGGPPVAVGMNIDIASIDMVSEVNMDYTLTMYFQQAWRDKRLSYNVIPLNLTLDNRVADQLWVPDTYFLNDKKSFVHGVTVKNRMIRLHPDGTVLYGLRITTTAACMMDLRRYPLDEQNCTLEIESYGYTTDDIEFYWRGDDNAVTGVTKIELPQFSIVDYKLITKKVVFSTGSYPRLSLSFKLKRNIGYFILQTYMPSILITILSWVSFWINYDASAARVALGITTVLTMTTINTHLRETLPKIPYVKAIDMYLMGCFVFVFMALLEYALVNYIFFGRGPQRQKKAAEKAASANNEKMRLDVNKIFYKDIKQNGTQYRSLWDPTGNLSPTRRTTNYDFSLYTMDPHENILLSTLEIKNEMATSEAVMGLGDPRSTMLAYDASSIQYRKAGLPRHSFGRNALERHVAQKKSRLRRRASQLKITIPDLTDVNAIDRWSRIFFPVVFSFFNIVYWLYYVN
Protocol: (§1) Patch Clamp Electrophysiology of Recombinant α1β2γ2 and α4β3δ GABAA Receptors
(§2) Cellular electrophysiology is used to measure the pharmacological properties of our GABAA receptor modulators in heterologous cell systems. Each compound is tested for its ability to affect GABA mediated currents at a submaximal agonist dose (GABA EC20=2 μM). LTK cells are stably transfected with the α1β2γ2 subunits of the GABA receptor and CHO cells are transiently transfected with the α4β3δ subunits via the Lipofecatamine method. Cells were passaged at a confluence of about 50-80% and then seeded onto 35 mm sterile culture dishes containing 2 ml culture complete medium without antibiotics or antimycotics. Confluent clusters of cells are electrically coupled (Pritchett et al., Science, 1988, 242, 1306-1308.). Because responses in distant cells are not adequately voltage clamped and because of uncertainties about the extent of coupling (Verdoorn et al., Neuron 1990, 4, 919-928.), cells were cultivated at a density that enables the recording of single cells (without visible connections to other cells).
(§3) Whole cell currents were measured with HEKA EPC-10 amplifiers using PatchMaster software or by using the high throughput QPatch platform (Sophion). Bath solution for all experiments contained (in mM): NaCl 137 mM, KCl 4 mM, CaCl2 1.8 mM, MgCl2 1 mM, HEPES 10 mM, D-Glucose 10 mM, pH (NaOH) 7.4. In some cases 0.005% cremophor was also added. Intracellular (pipette) solution contained: KCl 130 mM, MgCl2 1 mM, Mg-ATP 5 mM, HEPES 10 mM, EGTA 5 mM, pH 7.2. During experiments, cells and solutions were maintained at room temperature (19° C.-30° C.). For manual patch clamp recordings, cell culture dishes were placed on the dish holder of the microscope and continuously perfused (1 ml/min) with bath solution. After formation of a Gigaohm seal between the patch electrodes and the cell (pipette resistance range: 2.5 MΩ-6.0 MΩ; seal resistance range: >1 GΩ) the cell membrane across the pipette tip was ruptured to assure electrical access to the cell interior (whole-cell patch-configuration). For experiments using the QPatch system, cells were transferred as suspension to the QPatch system in the bath solution and automated whole cell recordings were performed.
(§4) Cells were voltage clamped at a holding potential of −80 mV. For the analysis of test articles, GABA receptors were stimulated by 2 μM GABA after sequential pre-incubation of increasing concentrations of the test article. Pre-incubation duration was 30 s and the duration of the GABA stimulus was 2 s. Test articles were dissolved in DMSO to form stock solutions (10 mM). Test articles were diluted to 0.01, 0.1, 1, and 10 μM in bath solution. All concentrations of test articles were tested on each cell. The relative percentage potentiation was defined as the peak amplitude in response to GABA EC20 in the presence of the test article divided by the peak amplitude in response to GABA EC20 alone, multiplied by 100.

[1] = biological target: [35S]-TBPS binding, rat brain cortical membranes (GABA receptor complex); assay: Steroid inhibition of [35S]-TBPS binding; settings: 3 nM [35S]-TBPS, 5 μM GABA
Protocol: Steroid Inhibition of TBPS Binding
[35S]-t-Butylbicyclophosphorothionate (TBPS) binding assays using rat brain cortical membranes in the presence of 5 μM GABA has been described (Gee et al, J. Pharmacol. Exp. Ther. 1987, 241, 346-353; Hawkinson et al, Mol. Pharmacol. 1994, 46, 977-985; Lewin, A. H et al., Mol. Pharmacol. 1989, 35, 189-194).
Briefly, cortices are rapidly removed following decapitation of carbon dioxide-anesthetized Sprague-Dawley rats (200-250 g). The cortices are homogenized in 10 volumes of ice-cold 0.32 M sucrose using a glass/teflon homogenizer and centrifuged at 1500×g for 10 min at 4° C. The resultant supernatants are centrifuged at 10,000×g for 20 min at 4° C. to obtain the P2 pellets. The P2 pellets are resuspended in 200 mM NaCl/50 mM Na-K phosphate pH 7.4 buffer and centrifuged at 10,000×g for 10 min at 4° C. This washing procedure is repeated twice and the pellets are resuspended in 10 volumes of buffer. Aliquots (100 μL) of the membrane suspensions are incubated with 3 nM [^35S]-TBPS and 5 μL aliquots of test drug dissolved in dimethyl sulfoxide (DMSO) (final 0.5%) in the presence of 5 μM GABA. The incubation is brought to a final volume of 1.0 mL with buffer. Nonspecific binding is determined in the presence of 2 μM unlabeled TBPS and ranged from 15 to 25%. Following a 90 min incubation at room temp, the assays are terminated by filtration through glass fiber filters (Schleicher and Schuell No. 32) using a cell harvester (Brandel) and rinsed three times with ice-cold buffer. Filter bound radioactivity is measured by liquid scintillation spectrometry. Non-linear curve fitting of the overall data for each drug averaged for each concentration is done using Prism (GraphPad). […] The concentration of test compound producing 50% inhibition (IC50) of specific binding and the maximal extent of inhibition (Imax) are determined for the individual experiments with the same model used for the overall data and then the means±SEM.s of the individual experiments are calculated.
Various compounds are or can be screened to determine their potential as modulators of [^35S]-TBPS binding in vitro. These assays are or can be performed in accordance with the above discussed procedures.

GABAA receptor α1β2γ2 = biological target: T2, GABAA receptor α1β2γ2 (Homo sapiens, UniProt P14867+P47870); assay: Patch clamp electrophysiology, Qpatch in Ltk cells; format: cell-based; settings: 10 μM test article, GABA EC20 2 μM, read-out: GABA (α1β2γ2) Qpatch in Ltk, % efficacy at 10 μM
T2 construct: expressed in transfected cells
T2 sequence (P18507 40-475 partner, one chain of several): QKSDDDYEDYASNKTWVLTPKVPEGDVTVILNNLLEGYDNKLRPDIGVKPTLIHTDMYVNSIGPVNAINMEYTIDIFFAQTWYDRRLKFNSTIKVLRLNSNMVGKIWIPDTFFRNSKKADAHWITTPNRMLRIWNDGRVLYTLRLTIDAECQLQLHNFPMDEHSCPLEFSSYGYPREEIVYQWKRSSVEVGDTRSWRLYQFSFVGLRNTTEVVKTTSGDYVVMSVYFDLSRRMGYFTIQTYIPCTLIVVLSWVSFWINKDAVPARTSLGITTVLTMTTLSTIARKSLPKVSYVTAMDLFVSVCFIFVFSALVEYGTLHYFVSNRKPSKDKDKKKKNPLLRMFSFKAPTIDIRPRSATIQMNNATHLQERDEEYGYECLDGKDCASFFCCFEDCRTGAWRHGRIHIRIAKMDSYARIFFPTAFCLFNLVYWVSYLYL
Protocol: as §1, §2, §3, §4

GABAA receptor α4β3δ = biological target: T3, GABAA receptor α4β3δ (Homo sapiens, UniProt P28472+P48169); assay: Patch clamp electrophysiology, manual patch in CHO cells; format: cell-based; settings: 10 μM test article, GABA EC20 2 μM, read-out: GABA (α4β3δ) Manual patch in CHO, % efficacy at 10 μM
T3 construct: expressed in transfected cells; host or cells: CHO cells (transient, lipofection)
T3 sequence (P48169 36-554): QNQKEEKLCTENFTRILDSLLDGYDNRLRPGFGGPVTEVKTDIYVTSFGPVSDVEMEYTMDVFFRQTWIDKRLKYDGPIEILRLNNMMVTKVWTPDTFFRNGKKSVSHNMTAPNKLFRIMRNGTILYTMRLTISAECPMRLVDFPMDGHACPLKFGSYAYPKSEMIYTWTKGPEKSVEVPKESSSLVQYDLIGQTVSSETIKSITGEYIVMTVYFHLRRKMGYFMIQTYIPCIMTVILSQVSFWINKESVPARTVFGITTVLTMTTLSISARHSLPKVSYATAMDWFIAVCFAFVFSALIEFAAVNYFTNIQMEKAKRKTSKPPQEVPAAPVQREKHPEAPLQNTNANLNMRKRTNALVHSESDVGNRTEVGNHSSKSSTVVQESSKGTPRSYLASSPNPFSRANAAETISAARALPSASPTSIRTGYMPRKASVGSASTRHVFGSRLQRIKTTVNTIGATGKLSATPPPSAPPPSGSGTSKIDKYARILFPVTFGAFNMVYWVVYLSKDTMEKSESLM
T3 sequence (P28472 26-473): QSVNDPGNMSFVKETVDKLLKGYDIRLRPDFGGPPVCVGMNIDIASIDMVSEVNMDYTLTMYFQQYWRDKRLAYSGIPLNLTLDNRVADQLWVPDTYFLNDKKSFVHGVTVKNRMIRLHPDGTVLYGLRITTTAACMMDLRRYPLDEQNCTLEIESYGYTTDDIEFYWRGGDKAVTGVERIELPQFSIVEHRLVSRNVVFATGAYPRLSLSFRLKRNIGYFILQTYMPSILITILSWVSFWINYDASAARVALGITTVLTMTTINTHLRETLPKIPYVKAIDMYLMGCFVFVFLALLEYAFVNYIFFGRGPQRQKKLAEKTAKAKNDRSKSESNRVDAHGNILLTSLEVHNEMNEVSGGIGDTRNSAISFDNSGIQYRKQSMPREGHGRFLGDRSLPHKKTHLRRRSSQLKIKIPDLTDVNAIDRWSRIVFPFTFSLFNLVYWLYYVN
T3 sequence (O14764 25-452 partner): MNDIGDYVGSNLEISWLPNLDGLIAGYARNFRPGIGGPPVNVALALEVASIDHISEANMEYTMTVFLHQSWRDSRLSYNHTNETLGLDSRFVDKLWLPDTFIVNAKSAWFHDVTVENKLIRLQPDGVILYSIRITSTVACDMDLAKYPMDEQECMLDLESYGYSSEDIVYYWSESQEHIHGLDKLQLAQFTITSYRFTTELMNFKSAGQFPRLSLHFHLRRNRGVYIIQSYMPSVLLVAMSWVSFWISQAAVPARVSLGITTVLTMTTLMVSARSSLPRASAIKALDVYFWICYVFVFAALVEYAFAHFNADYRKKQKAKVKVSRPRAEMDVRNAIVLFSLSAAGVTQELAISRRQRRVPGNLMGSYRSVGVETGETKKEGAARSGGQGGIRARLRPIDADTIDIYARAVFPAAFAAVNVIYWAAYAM
Protocol: as §1, §2, §3, §4

Row | Compound | Emax (GABAA-R) [%] | EC50 (GABAA-R) [nM] | IC50 [1] [nM] | Emax at 10 µM (GABAA receptor α1β2γ2) [%] | Emax at 10 µM (GABAA receptor α4β3δ) [%]
1 | C[C@@]1(O)CC[C@H]2[C@H](CC[C@@H]3[C@@H]2CC[C@]2(C)[C@@H](C(=O)Cn4nccc4C(F)(F)F)CC[C@@H]32)C1 [SA-2] | 500 to 1000 | > 2000 | 50 to 100 | > 500 | –
2 | C[C@@]1(O)CC[C@H]2[C@H](CC[C@@H]3[C@@H]2CC[C@]2(C)[C@@H](C(=O)Cn4cc([N+](=O)[O-])cn4)CC[C@@H]32)C1 [SA-8] | 0 to 500 | 1000 to 2000 | 10 to 50 | 100 to 500 | –
3 | COC[C@@]1(O)CC[C@H]2[C@H](CC[C@@H]3[C@@H]2CC[C@]2(C)[C@@H](C(=O)Cn4cc(C#N)cn4)CC[C@@H]32)C1 [SA-24] | – | – | 10 to 50 | > 500 | > 500
4 | COC[C@@]1(O)CC[C@H]2[C@@H](CC[C@@H]3[C@@H]2CC[C@]2(C)[C@@H](C(=O)Cn4cc(C#N)cn4)CC[C@@H]32)C1 [SB-5] | – | – | 10 to 50 | > 500 | 100 to 500
5 | C[C@@]1(O)CC[C@H]2[C@@H](CC[C@@H]3[C@@H]2CC[C@]2(C)[C@@H](C(=O)Cn4cc(C#N)cn4)CC[C@@H]32)C1 [SB-2] | – | – | – | 100 to 500 | 100 to 500
6 | C[C@@]1(O)CC[C@@H]2[C@H]3CC[C@]4(C)[C@@H](C(=O)Cn5cc(C#N)cn5)CC[C@H]4[C@@H]3C[C@@H](F)[C@H]2C1 [SB-11] | – | – | – | 100 to 500 | > 500
7 | C[C@@]1(O)CC[C@@H]2[C@H]3CC[C@]4(C)[C@@H](C(=O)Cn5cccn5)CC[C@H]4[C@@H]3C[C@@H](F)[C@H]2C1 [SB-10] | – | – | 100 to 500 | 100 to 500 | 100 to 500
8 | C[C@@]1(O)CC[C@H]2[C@@H](CC[C@@H]3[C@@H]2CC[C@]2(C)[C@@H](C(=O)Cn4cccn4)CC[C@@H]32)C1 [SB-1] | – | – | 100 to 500 | 100 to 500 | 100 to 500
9 | C[C@@]1(O)CC[C@H]2[C@H](CC[C@@H]3[C@@H]2CC[C@]2(C)[C@@H](C(=O)Cn4cc(Br)cn4)CC[C@@H]32)C1 [SA-9] | 0 to 500 | 100 to 500 | 10 to 50 | 100 to 500 | > 500
10 | C[C@@]1(O)CC[C@H]2[C@H](CC[C@@H]3[C@@H]2CC[C@]2(C)[C@@H](C(=O)Cn4ccc(C(F)(F)F)n4)CC[C@@H]32)C1 [SA-1] | 500 to 1000 | 1000 to 2000 | < 10 | > 500 | –
11 | Cc1ccn(CC(=O)[C@H]2CC[C@H]3[C@@H]4CC[C@@H]5C[C@](C)(O)CC[C@@H]5[C@H]4CC[C@]23C)n1 [SA-11] | 500 to 1000 | 1000 to 2000 | 10 to 50 | > 500 | –
12 | C[C@@]1(O)CC[C@@H]2[C@H]3CC[C@]4(C)[C@@H](C(=O)Cn5cc(S(C)(=O)=O)cn5)CC[C@H]4[C@@H]3C[C@@H](F)[C@H]2C1 [SB-15] | – | – | – | 100 to 500 | > 500
13 | C[C@]12CC[C@H]3[C@@H](CC[C@@H]4C[C@@](O)(CF)CC[C@@H]43)[C@@H]1CC[C@@H]2C(=O)Cn1cc(C#N)cn1 [SA-32] | – | – | 10 to 50 | > 500 | > 500
14 | C[C@@]1(O)CC[C@H]2[C@H](CC[C@@H]3[C@@H]2CC[C@]2(C)[C@@H](C(=O)Cn4cc(Cl)cn4)CC[C@@H]32)C1 [SA-7] | 0 to 500 | 1000 to 2000 | 10 to 50 | > 500 | > 500
15 | CC(=O)c1ccn(CC(=O)[C@H]2CC[C@H]3[C@@H]4CC[C@@H]5C[C@](C)(O)CC[C@@H]5[C@H]4CC[C@]23C)n1 [SA-5] | – | > 2000 | < 10 | > 500 | –
16 | Cc1ccnn1CC(=O)[C@H]1CC[C@H]2[C@@H]3CC[C@@H]4C[C@](C)(O)CC[C@@H]4[C@H]3CC[C@]12C [SA-10] | 0 to 500 | > 2000 | 50 to 100 | 100 to 500 | –
